Data reported in ChEMBL document CHEMBL4627294, “Synthesis and efficacy of pyrvinium-inspired analogs against tuberculosis and malaria pathogens” (Bioorg Med Chem Lett, 2020).
In brackets after ≈: the same amount, converted by molar mass. Activity calls are given as the source filed them. No cut-off for these calls is given here.

Tests used:
[1] = test system: Mycobacterium tuberculosis; assay: Antimycobacterial activity against Mycobacterium tuberculosis H37Rv assessed as inhibition of bacterial growth by MABA assay; type: functional
[2] = test system: CHO-K1; assay: Cytotoxicity against CHOK1 cells; type: cell-based; conditions: Cricetulus griseus
[3] = Selectivity index, ratio of IC50 for CHOK1 cells to IC50 for Plasmodium falciparum 3D7; type: toxicity; conditions: hamster, CHO-K1 cells; read-out: Ratio IC50
[4] = Cytotoxicity against human HEK cells; type: cell-based; conditions: HEK293
[5] = test system: NRK-49F; assay: Cytotoxicity against rat NRK-49F cells; type: cell-based
[6] = test system: Plasmodium falciparum; assay: Antimalarial activity against erythrocytic stage of Plasmodium falciparum 3D7 incubated for 50 hrs; type: functional, organism-based; conditions: 3D7, 50 h
[7] = Selectivity index, ratio of IC50 for CHOK1 cells to MIC for Mycobacterium tuberculosis H37Rv; type: toxicity; conditions: hamster, CHO-K1 cells
[8] = test system: Plasmodium falciparum; assay: Antimalarial activity against drug-resistant Plasmodium falciparum Dd2; type: functional, organism-based
[9] = test system: Plasmodium falciparum; assay: Antimalarial activity against early ring stage of Plasmodium falciparum 3D7 assessed as parasite growth arrest at early trophozite stage at 3 times of IC50 incubated for 48 hrs by giemsa staining based light microscopy; type: functional, organism-based
[10] = test system: Plasmodium falciparum; assay: Antimalarial activity against Plasmodium falciparum 3D7 assessed as inhibition of parasite growth incubated for 96 hrs; type: functional, organism-based; conditions: 3D7, 96 h
[11] = test system: Plasmodium falciparum; assay: Parasiticidal activity against early ring stage of Plasmodium falciparum 3D7 assessed as reduction in parasite growth incubated for 48 hrs followed by compound washed off and measured after 48 hrs incubation in normal medium; type: functional, organism-based

CN(C)c1ccc2c(ccc(/C=C/c3ccccc3)[n+]2C)c1
MIC [1]: > 100 µM | IC50 [2]: 41.6 µM | selectivity ratio [3]: 467 | IC50 [4]: 39.8 µM | IC50 [5]: 42.1 µM | IC50 [6]: 0.089 µM | selectivity ratio [7]: < 0.41

C[C@@H]1CC[C@H]2[C@@H](C)C(=O)O[C@@H]3O[C@@]4(C)CC[C@@H]1[C@]32OO4 [ARTEMISININ]
IC50 [6]: 0.025 µM | IC50 [8]: 0.021 µM

Cc1cc(/C=C/c2ccc3cc(N(C)C)ccc3[n+]2C)c(C)n1-c1ccccc1
MIC [1]: 6.25 µM | IC50 [2]: 10.9 µM | selectivity ratio [3]: 14 | IC50 [4]: 16 µM | IC50 [5]: 20.2 µM | IC50 [6]: 0.774 µM | selectivity ratio [7]: 1.73

CN(C)c1ccc2c(ccc(/C=C/c3cc(Cl)cc(Cl)c3O)[n+]2C)c1
MIC [1]: 25 µM | IC50 [2]: 54.7 µM | selectivity ratio [3]: 22.1 | IC50 [4]: 50.1 µM | IC50 [5]: 49.1 µM | IC50 [6]: 2.47 µM | selectivity ratio [7]: 2.18

CN(C)c1ccc2c(ccc(/C=C/c3ccc(C#N)cc3)[n+]2C)c1
MIC [1]: 50 µM | IC50 [2]: 52.6 µM | selectivity ratio [3]: 553 | IC50 [4]: 62.1 µM | IC50 [5]: 50.2 µM | IC50 [6]: 0.094 µM | selectivity ratio [7]: 1.05

CN(C)c1ccc2c(ccc(/C=C/c3ccc[nH]3)[n+]2C)c1
MIC [1]: 25 µM | IC50 [2]: 77.8 µM | selectivity ratio [3]: 50.5 | IC50 [4]: 66.9 µM | IC50 [5]: 76 µM | IC50 [6]: 1.54 µM | selectivity ratio [7]: 3.11

CN(C)c1ccc2c(ccc(/C=C/c3cccc(C#N)c3)[n+]2C)c1
MIC [1]: 25 µM | IC50 [2]: 87.6 µM | selectivity ratio [3]: 404 | IC50 [4]: 56 µM | IC50 [5]: 59.5 µM | IC50 [6]: 0.217 µM | selectivity ratio [7]: 3.5

CN(C)c1ccc2c(ccc(/C=C/c3c[nH]c4ccccc34)[n+]2C)c1
MIC [1]: 3.12 µM | IC50 [2]: 11.4 µM | selectivity ratio [3]: 188 | IC50 [4]: 10.6 µM | IC50 [5]: 11.3 µM | IC50 [6]: 0.06 µM | IC50 [8]: 0.097 µM | selectivity ratio [7]: 3.64

Cc1cc(/C=C/c2ccc3cc(N(C)C)ccc3[n+]2C)c(C)n1-c1ccccn1
MIC [1]: 6.25 µM | IC50 [2]: 15.2 µM | selectivity ratio [3]: 66.2 | IC50 [4]: 14.6 µM | IC50 [5]: 12.7 µM | IC50 [6]: 0.228 µM | selectivity ratio [7]: 2.42

CO[C@H]1/C=C/O[C@@]2(C)Oc3c(C)c(O)c4c(O)c(c(/C=N/N5CCN(C)CC5)c(O)c4c3C2=O)NC(=O)/C(C)=C\C=C\[C@H](C)[C@H](O)[C@@H](C)[C@@H](O)[C@@H](C)[C@H](OC(C)=O)[C@@H]1C [RIFAMPIN]
MIC [1]: 0.24 µM (≈ 0.198 µg/mL)

CN(C)c1ccc2c(ccc(/C=C/c3cc(Cl)ccc3O)[n+]2C)c1
MIC [1]: 3.12 µM | IC50 [2]: 30.3 µM | selectivity ratio [3]: 68.7 | IC50 [4]: 15.3 µM | IC50 [5]: 12 µM | IC50 [6]: 0.441 µM | selectivity ratio [7]: 9.72

CCc1nc(N)nc(N)c1-c1ccc(Cl)cc1 [PYRIMETHAMINE]
IC50 [6]: 0.011 µM

CN(C)c1ccc2c(ccc(/C=C/c3ccccc3[N+](=O)[O-])[n+]2C)c1
MIC [1]: 50 µM | IC50 [2]: 73.9 µM | selectivity ratio [3]: 20.5 | IC50 [4]: 66.7 µM | IC50 [5]: 69.5 µM | IC50 [6]: 3.6 µM | selectivity ratio [7]: 1.47

CN(C)c1ccc2c(ccc(/C=C/c3c(Cl)cccc3Cl)[n+]2C)c1
MIC [1]: 3.12 µM | IC50 [2]: 7.92 µM | selectivity ratio [3]: 344 | IC50 [4]: 5.62 µM | IC50 [5]: 5.23 µM | IC50 [6]: 0.023 µM | Activity [9]: Active | IC50 [10]: 0.00237 µM | Activity [11]: Active | IC50 [8]: 0.053 µM | selectivity ratio [7]: 2.53

CN(C)c1ccc2c(ccc(/C=C/c3ccc(Cl)c(Cl)c3)[n+]2C)c1
MIC [1]: 3.12 µM | IC50 [2]: 12.4 µM | selectivity ratio [3]: 142 | IC50 [4]: 8.56 µM | IC50 [5]: 11.3 µM | IC50 [6]: 0.087 µM | selectivity ratio [7]: 3.98
